Key:
[1] = Solubility measurement of beta-carotene in water (0.45 micron filtration, UV-Vis spectrometry); format: physicochemical; conditions: beta-carotene admixed in edible oil, mixed with 10 ml DI water, 0.45 micron syringe filter
Description: Solubility Measurement: For comparison purpose, the solubility of beta-carotene was measured both in edible oil and in the micellized product of Example 1 described above. In these measurements a suitable amount of sample is mixed with 10 ml of DI water for at least 10 minutes. The solutions are filtered through 0.45 microns syringe filter. The beta-carotene contained in the sample after this filtration is measured by UV-Vis spectrometry. […] 100% of the originally admixed beta-carotene is measured to be present in the micellized filtered sample of Example 1.

[2] = Solubility measurement of Co-Q10 in aqueous solution (HPLC assay); format: physicochemical

SMILES	beta-carotene found in the aqueous sample [1]	Co-Q10 detected in aqueous solution [2]
CC1=C(/C=C/C(C)=C/C=C/C(C)=C/C=C/C=C(C)/C=C/C=C(C)/C=C/C2=C(C)CCCC2(C)C)C(C)(C)CCC1 [beta-carotene]	No detectable amount	–
COC1=C(OC)C(=O)C(C/C=C(\C)CC/C=C(\C)CC/C=C(\C)CC/C=C(\C)CC/C=C(\C)CC/C=C(\C)CC/C=C(\C)CC/C=C(\C)CC/C=C(\C)CCC=C(C)C)=C(C)C1=O [Co-Q10 powder, ubidecarenone]	–	no Co-Q10 detected
